The molecules below were run on CCRF-CEM cells (assay: Time-dependent antiproliferative activity assay (MTS)). Details: drug 5 µM, [(WR)5C]-GdNPs 50 µM, 72 h incubation, MTS 490 nm, triplicate (n = 3).
Assay type: cell-based, human
Experimental: Antiproliferative activities of several anticancer drugs, including epirubicin, cisplatin, gemcitabine, etoposide, carboplatin and camptothecin, were evaluated in the presence and absence of [(WR)5C]-GdNPs in CCRF-CEM cells. Different time periods, including 24, 48 and 72 h, were selected. The CellTiter 96 aqueous one solution cell proliferation assay kit (Promega, Madison, WI, USA) was used for the assay. The CCRF-CEM cells (5 × 10^4) were seeded in 100 µL of the media. The cells then placed in each well of the 96-well culture plate. The cells were incubated with drugs alone and [(WR)5C]-GdNPs-loaded drugs at a similar condition in triplicates. To confirm the results, DMSO (1% in water) was used as a control. To entrap the drug, the physical mixing method was used. A calculated volume of the drug solution was mixed with the desired volume of an aqueous solution of [(WR)5C]-GdNPs physically to obtain a final concentration of the drug (5 μM) and the [(WR)5C]-GdNPs (50 μM). The mixture was vortexed until the solution became homogeneous and clear. The mixture was incubated for 30 min at room temperature before adding to the cells to obtain optimized performance. The incubation of cells with their treatments was carried out at 37 °C for 24–72 h. The cell viability assay was performed by adding 20 μL of CellTiter 96 aqueous solution. The cells were incubated for another hour with the MTS reagent. The formazan absorbance was measured at 490 nm by a microplate reader. The percentage of cell survival was calculated as previously reported.
Several anticancer drugs such as epirubicin, cisplatin, gemcitabine, etoposide, carboplatin and camptothecin were evaluated for their antiproliferative activities at different time periods, including 24, 48 and 72 h. […] The improved antiproliferative activity of cisplatin and carboplatin could be due to the chelating of the thiol group of cysteine with these anticancer agents or binding of metals to peptides as GdNPs. […]
With `COc1cc([C@@H]2c3cc4c(cc3[C@@H](O[C@@H]3O[C@@H]5CO[C@@H](C)O[C@H]5[C@H](O)[C@H]3O)[C@H]3COC(=O)[C@H]23)OCO4)cc(OC)c1O` [etoposide] the “enhancement of antiproliferative potency in the presence of [(WR)5C]-GdNPs” value (“enhancement of antiproliferative potency” for short) was 2%.
With `COc1cccc2c1C(=O)c1c(O)c3c(c(O)c1C2=O)C[C@@](O)(C(=O)CO)C[C@@H]3O[C@H]1C[C@H](N)[C@@H](O)[C@H](C)O1` [epirubicin] the “enhancement of antiproliferative potency” value was 6%.
For `CC[C@@]1(O)C(=O)OCc2c1cc1n(c2=O)Cc2cc3ccccc3nc2-1` [camptothecin], the “enhancement of antiproliferative potency” value was 8%.

From paper PMC7557599, “Cyclic Peptide-Gadolinium Nanoparticles for Enhanced Intracellular Delivery” (Pharmaceutics, 2020)
